# Reference: PubChem BioAssay (NCI)
#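 Protocol summary: plate cells (96-well), add compound at 5 concentrations, incubate 48 h, interpolate endpoints linearly. At the GI50, growth is halved. At the TGI there is no net growth.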
# Key:
# Assay in all cases: NCI-60 cell line screen, 48 h
# EKVX NSCLC = system: EKVX NSCLC
# HOP-62 NSCLC = system: HOP-62 NSCLC
# KM12 colon = system: KM12 colon
# M14 melanoma = system: M14 melanoma
# MDA-MB-435 = system: MDA-MB-435
# MDA-N = system: MDA-N
# OVCAR-8 ovarian = system: OVCAR-8 ovarian
# T-47D breast = system: T-47D breast
# TK-10 renal = system: TK-10 renal
# NCI-H460 lung = system: NCI-H460 lung
structure (smiles),measurement,setting,value
N#Cc1c(C#N)c(-c2ccccc2)n(-c2ccccc2)c1N,TGI,EKVX NSCLC,> 100 µM
same,TGI,HOP-62 NSCLC,> 100 µM
same,TGI,KM12 colon,> 100 µM
same,TGI,M14 melanoma,> 100 µM
same,TGI,MDA-MB-435,> 100 µM
same,TGI,MDA-N,> 100 µM
same,TGI,OVCAR-8 ovarian,> 100 µM
same,TGI,T-47D breast,56.1 µM
same,TGI,TK-10 renal,> 100 µM
CC1=CC(=O)CC2(C)CCC(C(C)CC(=O)CC(C)C)CC12 (stereo not drawn),TGI,EKVX NSCLC,> 100 µM
same,TGI,KM12 colon,36.4 µM
same,TGI,M14 melanoma,32.1 µM
same,TGI,MDA-MB-435,39 µM
same,TGI,NCI-H460 lung,> 100 µM
same,TGI,OVCAR-8 ovarian,53.2 µM
same,TGI,TK-10 renal,> 100 µM
Cc1c2ccncc2c(C)c2c1[nH]c1ccccc12,TGI,EKVX NSCLC,3 µM
same,TGI,HOP-62 NSCLC,3.13 µM
same,TGI,KM12 colon,2.36 µM
same,GI50,M14 melanoma,0.979 µM
same,TGI,M14 melanoma,2.33 µM
same,GI50,MDA-MB-435,0.762 µM
same,TGI,MDA-MB-435,2.21 µM
same,TGI,NCI-H460 lung,1.32 µM
same,TGI,OVCAR-8 ovarian,2.32 µM
same,GI50,T-47D breast,0.173 µM
same,TGI,T-47D breast,0.509 µM
same,GI50,TK-10 renal,0.79 µM
same,TGI,TK-10 renal,2.6 µM
O=c1n(Cc2ccccc2)c(=O)n2c(=O)n(Cc3ccccc3)c(=O)n12,TGI,KM12 colon,> 100 µM
same,TGI,MDA-MB-435,> 100 µM
same,TGI,MDA-N,> 100 µM
same,TGI,NCI-H460 lung,> 100 µM
same,TGI,OVCAR-8 ovarian,> 100 µM
same,TGI,T-47D breast,> 100 µM
same,TGI,TK-10 renal,> 100 µM
COc1ccc(-c2csc(NC(=O)CSc3nc(C)c(-c4ccccc4)n3Nc3ccccc3)n2)cc1,GI50,EKVX NSCLC,3.8 µM
same,TGI,EKVX NSCLC,> 100 µM
same,GI50,HOP-62 NSCLC,47.8 µM
same,TGI,HOP-62 NSCLC,> 100 µM
same,GI50,KM12 colon,5.71 µM
same,TGI,KM12 colon,> 100 µM
same,GI50,M14 melanoma,8.66 µM
same,TGI,M14 melanoma,> 100 µM
same,GI50,MDA-MB-435,5.77 µM
same,TGI,MDA-MB-435,> 100 µM
same,GI50,NCI-H460 lung,7.41 µM
same,TGI,NCI-H460 lung,> 100 µM
same,GI50,OVCAR-8 ovarian,3.48 µM
same,TGI,OVCAR-8 ovarian,> 100 µM
same,GI50,T-47D breast,2.82 µM
same,TGI,T-47D breast,7.49 µM
same,GI50,TK-10 renal,> 100 µM
same,TGI,TK-10 renal,> 100 µM
O=C(O)CC(NC(=O)/C(=C/c1ccccc1O)NC(=O)c1ccccc1)C(=O)O (stereo not drawn),TGI,EKVX NSCLC,> 100 µM
same,TGI,HOP-62 NSCLC,> 100 µM
same,TGI,KM12 colon,> 100 µM
same,TGI,M14 melanoma,> 100 µM
same,TGI,MDA-MB-435,> 100 µM
same,TGI,MDA-N,> 100 µM
same,TGI,OVCAR-8 ovarian,> 100 µM
same,TGI,T-47D breast,> 100 µM
same,TGI,TK-10 renal,> 100 µM
C[C@]12CC[C@H](O)C=C1CC[C@@H]1[C@@H]2CC[C@]2(C)C(c3ccc(=O)oc3)CC[C@]12O (stereo partly drawn),TGI,EKVX NSCLC,0.145 µM
same,TGI,HOP-62 NSCLC,0.0269 µM
same,TGI,KM12 colon,0.129 µM
same,TGI,NCI-H460 lung,0.0156 µM
same,TGI,OVCAR-8 ovarian,0.0527 µM
Cc1cn2c(C)csc2c1P(=O)(OC(C)C)OC(C)C,TGI,EKVX NSCLC,> 100 µM
same,TGI,HOP-62 NSCLC,> 100 µM
same,TGI,KM12 colon,> 100 µM
same,TGI,M14 melanoma,> 100 µM
same,TGI,MDA-MB-435,> 100 µM
same,TGI,MDA-N,> 100 µM
same,TGI,NCI-H460 lung,> 100 µM
same,TGI,OVCAR-8 ovarian,> 100 µM
same,TGI,TK-10 renal,> 100 µM
CCCCC/C(C=O)=C\c1ccccc1,TGI,EKVX NSCLC,> 100 µM
same,TGI,HOP-62 NSCLC,> 100 µM
same,TGI,KM12 colon,> 100 µM
same,TGI,M14 melanoma,> 100 µM
same,TGI,MDA-MB-435,> 100 µM
same,TGI,NCI-H460 lung,> 100 µM
same,TGI,OVCAR-8 ovarian,> 100 µM
same,TGI,T-47D breast,> 100 µM
same,TGI,TK-10 renal,> 100 µM
O=C(CCc1cccc(O)c1)NCCCNC(=O)CCc1cccc(O)c1,TGI,EKVX NSCLC,> 100 µM
same,TGI,HOP-62 NSCLC,> 100 µM
same,TGI,KM12 colon,> 100 µM
same,TGI,M14 melanoma,> 100 µM
same,TGI,MDA-MB-435,> 100 µM
same,TGI,MDA-N,> 100 µM
same,TGI,NCI-H460 lung,> 100 µM
same,TGI,OVCAR-8 ovarian,> 100 µM
same,TGI,T-47D breast,> 100 µM
CC(C)CCn1nc(N)c2nc3ccccc3nc21,TGI,EKVX NSCLC,> 100 µM
same,TGI,HOP-62 NSCLC,> 100 µM
same,TGI,KM12 colon,> 100 µM
same,TGI,M14 melanoma,> 100 µM
same,TGI,MDA-MB-435,> 100 µM
same,TGI,MDA-N,> 100 µM
same,TGI,NCI-H460 lung,> 100 µM
same,TGI,OVCAR-8 ovarian,> 100 µM
same,TGI,TK-10 renal,> 100 µM
Cc1c(C#N)c(N)n(C2OCC(O)C(O)C2O)c(=S)c1C#N (stereo not drawn),TGI,HOP-62 NSCLC,> 100 µM
same,TGI,KM12 colon,> 100 µM
same,TGI,M14 melanoma,> 100 µM
same,TGI,MDA-MB-435,> 100 µM
same,TGI,MDA-N,> 100 µM
same,TGI,NCI-H460 lung,> 100 µM
same,TGI,OVCAR-8 ovarian,> 100 µM
same,TGI,T-47D breast,> 100 µM
same,TGI,TK-10 renal,> 100 µM
CCCCC#CS(=O)(=O)C(F)(F)F,TGI,EKVX NSCLC,> 100 µM
same,TGI,HOP-62 NSCLC,> 100 µM
same,TGI,KM12 colon,> 100 µM
same,TGI,NCI-H460 lung,> 100 µM
same,TGI,OVCAR-8 ovarian,> 100 µM
CC1(C)[C@@H](Cn2cnc3c(Cl)nc(N)nc32)CC[C@@]1(C)CO,TGI,EKVX NSCLC,> 100 µM
same,TGI,HOP-62 NSCLC,> 100 µM
same,TGI,KM12 colon,> 100 µM
same,TGI,M14 melanoma,> 100 µM
same,TGI,MDA-MB-435,64.2 µM
same,TGI,MDA-N,91.7 µM
same,TGI,T-47D breast,> 100 µM
same,TGI,TK-10 renal,> 100 µM
C[C@]1(S(=O)(=O)c2ccccc2)C[C@H]2N(Cc3ccccc3)[C@@H]1CCC21OCCO1,TGI,EKVX NSCLC,> 100 µM
same,TGI,HOP-62 NSCLC,> 100 µM
same,TGI,KM12 colon,> 100 µM
same,TGI,M14 melanoma,> 100 µM
same,TGI,MDA-MB-435,> 100 µM
same,TGI,MDA-N,> 100 µM
same,TGI,NCI-H460 lung,> 100 µM
same,TGI,OVCAR-8 ovarian,> 100 µM
same,TGI,T-47D breast,> 100 µM
CC(C)(C)C(=O)C(Cc1ccccc1)C(=O)C(C)(C)C,TGI,EKVX NSCLC,> 100 µM
same,TGI,HOP-62 NSCLC,> 100 µM
same,TGI,KM12 colon,> 100 µM
same,TGI,M14 melanoma,> 100 µM
same,TGI,MDA-N,> 100 µM
same,TGI,NCI-H460 lung,> 100 µM
same,TGI,OVCAR-8 ovarian,> 100 µM
same,TGI,T-47D breast,> 100 µM
same,TGI,TK-10 renal,> 100 µM
c1csc(-c2c3ccc(=[N+]4CCCCC4)cc-3oc3cc(N4CCCCC4)ccc23)c1,GI50,HOP-62 NSCLC,0.0648 µM
same,TGI,HOP-62 NSCLC,0.199 µM
same,GI50,M14 melanoma,0.0776 µM
same,TGI,M14 melanoma,0.215 µM
same,GI50,TK-10 renal,0.15 µM
same,TGI,TK-10 renal,0.34 µM
CC(C)(C)OC(=O)n1c(-c2ccccc2F)cc(=O)c2cc3c(cc21)OCO3,TGI,EKVX NSCLC,> 100 µM
same,TGI,HOP-62 NSCLC,> 100 µM
same,TGI,M14 melanoma,> 100 µM
same,TGI,MDA-MB-435,> 100 µM
same,TGI,NCI-H460 lung,> 70.8 µM
same,TGI,OVCAR-8 ovarian,20.4 µM
same,TGI,T-47D breast,> 100 µM
same,TGI,TK-10 renal,> 100 µM
